Reference: paper PMC3522636, “4F Decreases IRF5 Expression and Activation in Hearts of Tight Skin Mice” (PLoS ONE, 2012)
Entries after “also recorded” stand apart in the source; their conditions may differ.

How the values were obtained:
IRF5 [1] = experiment: Western blot, myocardial IRF5 expression; assay type: in vivo, mouse; conditions: 4F 1 mg/kg/d, sc
Source text: All experimental procedures and protocols involving mice were reviewed and approved by the Institutional Animal Care and Use Committee (IACUC) of the Medical College of Wisconsin (AUA#512). They also conformed to the rules in the Guiding Principles in the Care and Use of Animals published by the American Physiologic Society and the Guide for the Care and Use of Laboratory Animals published by OLAW. Male Tsk^−/+ and C57Bl/6J mice (6–8 weeks of age) were purchased from Jackson Laboratories (Bar Harbor, ME). Three groups of mice were studied; C57Bl/6J, Tsk^−/+, and Tsk^−/+ mice treated with 4F (1 mg/kg/d, sc) as published previously.
Hearts harvested from C57Bl/6J, Tsk^−/+ and 4F-treated Tsk ^−/+ mice were snap-frozen and stored at −80°C for subsequent analysis. Frozen hearts were pulverized in a stainless steel mortar and pestle bathed in liquid nitrogen. The frozen powder was dissolved and homogenized in lysis buffer [MOPS pH 7.0, 20 mM; EGTA 2 mM; EDTA 5mM; NaF 30 mM; Protease Inhibitor Cocktail (Complete Mini Roche, Roche, Madison WI); Phosphatase Inhibitor Cocktail (Sigma P5726)]. Lysate proteins were quantified using BCA (bicinchoninic acid) reagent (Pierce, Rockford, IL). […] Band densities were analyzed using Image J software (NIH, Bethesda, MD).

IRF5 [2] = molecular target: T1, IRF5 (Homo sapiens, UniProt Q13568); experiment: Biolayer interferometry, 4F binding to B-IRF5; conditions: B-IRF5 on SA biosensors, Octet Red 96
T1 construct: purchased GenScript USA Inc
T1 sequence (Q13568 1-498): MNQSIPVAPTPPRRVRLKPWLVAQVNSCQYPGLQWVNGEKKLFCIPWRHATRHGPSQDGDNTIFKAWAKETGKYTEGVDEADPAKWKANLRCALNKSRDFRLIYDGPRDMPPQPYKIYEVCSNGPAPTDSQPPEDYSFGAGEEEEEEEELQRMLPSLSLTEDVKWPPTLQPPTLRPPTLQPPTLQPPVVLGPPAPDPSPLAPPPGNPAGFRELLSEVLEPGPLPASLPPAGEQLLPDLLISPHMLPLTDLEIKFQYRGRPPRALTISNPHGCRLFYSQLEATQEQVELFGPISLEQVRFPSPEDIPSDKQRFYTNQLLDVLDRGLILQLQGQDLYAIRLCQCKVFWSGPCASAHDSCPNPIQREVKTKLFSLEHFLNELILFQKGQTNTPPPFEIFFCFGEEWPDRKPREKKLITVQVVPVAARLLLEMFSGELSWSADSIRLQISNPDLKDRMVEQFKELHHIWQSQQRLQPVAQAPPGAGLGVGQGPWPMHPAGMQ
Experimental: Biolayer Interferometry (BLI): Protein-protein interactions were determined by BLI using an Octet Red 96™ interferometer (ForteBio, Inc, Menlo Park, CA). IRF5 was purchased (GenScript USA Inc) and labeled with biotin (cat no. 21329, Thermo Fisher Scientific, Rockford, IL) at a ratio of 1∶1, which is optimal for binding and packaging target proteins onto SA biosensors (MR18-0009, ForteBio) for studying protein-protein interactions. Biotin-labeled IRF5 (B-IRF5) was loaded onto SA-biosensors in PBS for 15 minutes to ensure saturation. The B-IRF5-loaded SA biosensors were incubated in PBS containing 4F (20 µg/ml) for 10 minutes and association measured by following increases in wavelength interference. Next the loaded biosensors were incubated in PBS alone for 10 minutes to measure dissociation of 4F from B-IRF5 by following decreases in wavelength interference.

[3] = tested on: Human umbilical vein endothelial cells; experiment: Cellular uptake of B-4F in endothelial cells; assay type: cell-based; conditions: B-4F 10 and 50 µg/ml; vs unlabeled 4F; 4 hours (method), 3 hours (Figure 6); confocal
Experimental: Human umbilical vein endothelial cells (EC; Lonza, Walkersville, MD) were incubated in EGM complete media containing 4F or B-4F (10 and 50 µg/ml) for 4 hours. The EC cultures were washed with PBS, fixed in PBS containing 1% paraformaldehyde, and permeabilized with PBS containing 0.5% Triton-X. The permeabilized sections were incubated with fluorescein-conjugated streptavidin (1 µg/ml) for 30 minutes followed by 3 PBS washes. The fixed and fluorescently labeled slides were mounted in aqueous mounting media and sections inspected and analyzed by confocal microscopy.

IRF5 [4] = molecular target: T1, IRF5; experiment: B-4F pulldown assay from EC cytosolic fractions spiked with recombinant IRF5; assay type: binding; conditions: 3 hours at 4°C, SA agarose beads overnight at 4°C; immunoblot
Experimental: B-4F Pulldown Assays: To determine whether 4F interacts with IRF5 in the presence of cystosol proteins, we performed 4F pulldown assays on EC cytosolic fractions spiked with recombinant IRF5. Briefly, cytosolic EC fractions were precleared with SA agarose beads (Cat#15942-050, Invitrogen) for 30 minutes at 4°C. IRF5 interactions were enhanced by adding recombinant IRF5 (2% wt/vol, Genscript USA Inc.) to the endothelial cytosolic fractions. 4F and B-4F were added to the cytosolic fractions and incubated for 3 hours at 4°C. SA agarose beads were added and the samples mixed end-over-end overnight at 4°C. The following day the SA agarose beads were isolated by centrifugation. The proteins associated with B-4F were released from the beads with Laemmli buffer and separated by SDS-PAGE (4–15%) as above. IRF5 levels in the pulldown samples were determined by autoradiography of immunoblots as above.

association with B-IRF5 (IRF5 [2]; 4F 20 µg/ml in PBS, 10 minutes): rapidly associated
dissociation from B-IRF5 (IRF5 [2]; PBS alone, 10 minutes): slow
Substance: Ac-DWFKAFYDKVAEKFKEAF-NH2 [4F]
reduction of IRF5 in Tsk−/+ hearts (band density) (IRF5 [1]; 6 weeks, vs untreated Tsk−/+ hearts): 78%
myocardial IRF5 expression (in words) (IRF5 [1]; 6–8 weeks, Tsk−/+ hearts): decrease IRF5 in Tsk^−/+ hearts; also recorded: markedly decreased IRF5 expression in Tsk^−/+ hearts; also recorded: markedly decrease IRF5 expression in Tsk^−/+ myocardium; also recorded: decreases myocardial expression of IRF5; also recorded: decreases IRF5 levels and activation in the Tsk^−/+ mouse hearts
association versus dissociation with IRF5 (IRF5 [2]; 4F 20 µg/ml): favoring association over dissociation; also recorded: favors association over dissociation; also recorded: rate of 4F association with IRF5 is faster than their rate of dissociation
uptake into EC (in words) [3]: enters EC in a concentration-dependent fashion
association with IRF5 in presence of EC cytosolic proteins (in words) (IRF5 [4]): strong enough to pull down IRF5 from a mixture of endothelial cell cytosolic proteins; also recorded: this interaction exists even in the presence of EC cytosolic proteins
